For one data set, the target named is T1, H^+ -K^+ ATPase (Sus scrofa, UniProt P19156).
T1 construct: Prepared from the fundic-glands of a fresh mucous membrane of a pig stomach; from tissue; host or cells: pig stomach, fundic glands of fresh mucous membrane (modified method of Saccomani et al., 1977)
In words: Inhibition against the activity of H^+ -K^+ ATPase. In kind it is biochemical, pig. Conditions: for IC50: 40 mM Tris-HCl pH 7.40, 37° C., 30 minutes incubation. How it is done:
Prepared from the fundic-glands of a fresh mucous membrane of a pig stomach according to a modified method of Saccomani al. (see Biochem. and Biophys. Acta, 464; 313 (1977)). The compound of the present invention was incubated at various concentration in a 40 mM Tris-HCl buffer solution having a pH of 7.40 together with H^+ -K^+ ATPase and 10 μg/ml of a protein at 37° C. for 30 minutes, followed by the addition of 15 mM KCl. After 10 minutes, the ATPase reaction was initiated by the addition of 3 mM of MgCl2 and ATP. After 10 minutes, the amount of the released inorganic phosphoric acid was determined according to the method of Yoda and Hokin (see Biochem. Biophys. Res. Com., 40, 880 (1970)). The test compound was used as a solution in methanol. The inhibitory effect was determined by subtracting the amount of the released inorganic acid observed with respect to the case wherein a solution of a test compound was added from that with respect to the control wherein only a solvent was added to determine a difference and dividing this difference by the latter amount and shown by percentage.

In data set [1] the test system is pentagastrin-stimulated gastric acid secretion. Nature of the data set: Pentagastrin-stimulated gastric acid secretion and its recovery in chronic gastric fistula dogs. The format is in vivo, dog. Conditions: for Time required for the acid secretion to recover: 4 mg per kg intraduodenal; for Gastric acid secretion, percent of the control response, 1 hr: 1 hr after 4 mg per kg intraduodenal; for Gastric acid secretion, percent of the control response, 24 hr: 24 hr after 4 mg per kg intraduodenal; for Gastric acid secretion, percent of the control response, 48 hr: 48 hr after 4 mg per kg intraduodenal; for Inhibition of pentagastrin-stimulated gastric acid secretion (in words): within one hour from intraduodenal administration, 4 mg per kg. How it is done: Chronic gastric fistula dogs were used. The test compound was intraduodenally administered to each dog in an amount of 4 mg per kg. In 1, 24, 48 and 72 hours, respectively, from the time of administration, pentagastrin (6 micron grams per kg) was injected intramuscularly into the dog. Gastric acid secretion, determined and recovery thereof, was determined in terms of percent of the control response.

Data set [2] has as its system histamine-stimulated gastric acid secretion. Nature of the data set: Inhibitory effect on histamine-stimulated gastric acid secretion of chronic gastric fistula dogs. In kind it is in vivo, dog. Particulars: for ED50: Canis lupus familiaris, 1 h, intraduodenal, histamine-stimulated, read-out: ID 50, calculated from the dose-inhibition curve. How it is done: Chronic gastric fistula dogs were used. Gastric acid secretion of each dog was stimulated by infusing 100 micron grams per kg per hour of histamine. After one hour of histamine infusion, each of the test compounds was administered intraduodenally to each dog, and after one hour of administration, the amount of gastric acid secretion of each test dog was determined. Results wore compared with the control group to which no test compound had been administered and are expressed in terms of percent inhibition.

Data set [3] can be described thus: Toxicological influence, oral, one week, beagle dogs. The format is in vivo. Particulars: 10 mg/kg per day for one week.
Data set [4] can be described thus: Toxicological influence, oral, one week, rats. In kind it is in vivo. Particulars: rats (printed rate), 50 mg/kg per day for one week.

Data on 24 compounds can be found in patent US5840910A, “Pyridine derivatives having anti-ulcerative activity” (Esai Co., Ltd., priority 1986, dated 1998).

“Also recorded” adds a separate entry of the source. Counter-ions that a name gives are not always drawn.

T1 sequence (P19156 2-1034 limits assumed): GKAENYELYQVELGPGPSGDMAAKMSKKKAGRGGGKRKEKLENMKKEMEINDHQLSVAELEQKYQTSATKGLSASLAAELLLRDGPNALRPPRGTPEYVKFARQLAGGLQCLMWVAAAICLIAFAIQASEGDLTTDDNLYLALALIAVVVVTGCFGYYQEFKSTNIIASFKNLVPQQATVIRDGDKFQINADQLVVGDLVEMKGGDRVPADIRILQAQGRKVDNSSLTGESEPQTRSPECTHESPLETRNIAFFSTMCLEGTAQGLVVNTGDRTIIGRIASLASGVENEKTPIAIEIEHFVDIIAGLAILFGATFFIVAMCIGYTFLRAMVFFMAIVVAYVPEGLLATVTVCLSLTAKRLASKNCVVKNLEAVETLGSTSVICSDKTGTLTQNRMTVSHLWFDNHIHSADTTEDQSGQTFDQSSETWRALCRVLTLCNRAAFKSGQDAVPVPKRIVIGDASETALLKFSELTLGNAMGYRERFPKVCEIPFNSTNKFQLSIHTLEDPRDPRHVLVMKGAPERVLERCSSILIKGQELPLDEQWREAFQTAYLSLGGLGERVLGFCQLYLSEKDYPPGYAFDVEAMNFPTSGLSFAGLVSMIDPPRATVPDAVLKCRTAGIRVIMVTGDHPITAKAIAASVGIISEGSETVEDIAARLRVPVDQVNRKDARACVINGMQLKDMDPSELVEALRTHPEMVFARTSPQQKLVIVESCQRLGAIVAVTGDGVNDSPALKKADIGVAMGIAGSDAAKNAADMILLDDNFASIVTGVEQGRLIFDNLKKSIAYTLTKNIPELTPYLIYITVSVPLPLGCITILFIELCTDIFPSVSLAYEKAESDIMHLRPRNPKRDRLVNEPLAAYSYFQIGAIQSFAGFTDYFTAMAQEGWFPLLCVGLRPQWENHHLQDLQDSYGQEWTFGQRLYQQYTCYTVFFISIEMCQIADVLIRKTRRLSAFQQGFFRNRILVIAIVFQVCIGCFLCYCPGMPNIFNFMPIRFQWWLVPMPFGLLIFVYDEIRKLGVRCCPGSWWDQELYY
T1 sequence (P18434 whole entry partner): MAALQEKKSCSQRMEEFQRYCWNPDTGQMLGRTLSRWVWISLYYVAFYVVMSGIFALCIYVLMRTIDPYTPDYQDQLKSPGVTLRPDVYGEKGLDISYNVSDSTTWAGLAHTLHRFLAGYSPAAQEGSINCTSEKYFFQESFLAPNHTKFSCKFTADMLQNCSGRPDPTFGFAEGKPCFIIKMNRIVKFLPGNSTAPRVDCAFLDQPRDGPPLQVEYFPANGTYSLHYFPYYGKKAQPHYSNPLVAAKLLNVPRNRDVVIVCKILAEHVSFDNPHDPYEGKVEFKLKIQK

`Cc1c(OCCOCCCl)ccnc1C[S+]([O-])c1nc2ccccc2[nH]1` (stereo not drawn) [Compound 23]: at H^+ -K^+ ATPase, the IC50 came out at 1.4 µM.
Still for that read-out and setting: the value for `Cc1c(OCCOc2ccccc2)ccnc1C[S+]([O-])c1nc2ccccc2[nH]1` (stereo not drawn) [Compound 21] was 1.3 µM.
For `COCCCOc1ccnc(C[S+]([O-])c2nc3ccccc3[nH]2)c1C` (stereo not drawn) [Compound 19, Sodium Salt of 2-[{4-(3-Methoxypropoxy)-3-Methylpyridine-2-Yl}Methylsulfinyl]-1H-Benzimidazole], the “Inhibitory effect on the activity of H^+ -K^+ ATPase (in words)” value at H^+ -K^+ ATPase was “significant inhibitory effect”. Besides, on H^+ -K^+ ATPase, the IC50 came to 1.7 µM. Besides, the “Time required for the acid secretion to recover” value in data set [1] (pentagastrin) stood at 48 h. In addition, the “Gastric acid secretion, percent of the control response, 1 hr” value in data set [1] (pentagastrin) was found to be 0%. Also, in data set [1] (pentagastrin), the “Gastric acid secretion, percent of the control response, 24 hr” value is given as 61.9%. In addition, in data set [1] (pentagastrin), the “Gastric acid secretion, percent of the control response, 48 hr” value is 121.5%. In addition, in data set [1] (dog, in vivo), the “Recovery of gastric acid secretion (in words)” value is reported as “excellent gastric acid secretion recovery”. Moreover, in data set [1], the “Inhibition of pentagastrin-stimulated gastric acid secretion (in words)” value is “completely inhibited”. For the same compound, the “% Inhibition of acid output” value was 34.4% in data set [2] (31.25 μg/Kg intraduodenal); 50.1% in data set [2] (62.5 μg/Kg intraduodenal); 67.7% in data set [2] (125 μg/Kg intraduodenal); 87.4% in data set [2] (250 μg/Kg intraduodenal); 100.0% in data set [2] (500 μg/Kg intraduodenal). Further, the ED50 in data set [2] was 0.0599 mg/kg. In data set [2] (versus Omeprazole), the “Potency compared with Omeprazole, inhibition of gastric acid secretion” value was “two times more potent; also recorded: more potent inhibitory activity on gastric acid secretion as compared with Omeprazole”. The Toxicological influence entry in data set [3] and in data set [4] was “No toxicological influence has been observed” in each case.
`COCCOCCOc1ccnc(C[S+]([O-])c2nc3cc(C(F)(F)F)ccc3[nH]2)c1C` (stereo not drawn) [Compound 6] registered an IC50 against H^+ -K^+ ATPase of 0.55 µM.
`COc1ccc2[nH]c([S+]([O-])Cc3ncc(C)c(OC)c3C)nc2c1` (stereo not drawn) [Omeprazole, reference compound]: the “Time required for the acid secretion to recover” value in data set [1] (pentagastrin) is 72 h. Also, the “Gastric acid secretion, percent of the control response, 1 hr” value in data set [1] (pentagastrin) turned out to be 0.3%. In addition, in data set [1] (pentagastrin), the “Gastric acid secretion, percent of the control response, 24 hr” value is given as 32.3%. In addition, in data set [1] (pentagastrin), the “Gastric acid secretion, percent of the control response, 48 hr” value worked out at 69.1%. For the same compound, the “Gastric acid secretion, percent of the control response, 72 hr” value in data set [1] (72 hr after 4 mg per kg intraduodenal, pentagastrin) amounted to 108.4%. Further, the “Inhibition of pentagastrin-stimulated gastric acid secretion (in words)” value in data set [1] is given as “completely inhibited”. Also, the “% Inhibition of acid output” value is listed as 41.1% in data set [2] (62.5 μg/Kg intraduodenal); 48.6% in data set [2] (125 μg/Kg intraduodenal); 62.1% in data set [2] (250 μg/Kg intraduodenal); 91.2% in data set [2] (500 μg/Kg intraduodenal); 100.0% in data set [2] (1000 μg/Kg intraduodenal). Also, in data set [2], the ED50 was 0.112 mg/kg.
`COc1ccc2[nH]c([S+]([O-])Cc3nccc(OCCN4C(=O)CCC4=O)c3C)nc2c1` (stereo not drawn) [Compound 14] had an IC50 against H^+ -K^+ ATPase of 10 µM.
Same read-out and setting: the value for `Cc1c(OCCOCc2ccccn2)ccnc1C[S+]([O-])c1nc2ccccc2[nH]1` (stereo not drawn) [Compound 8] was 1.2 µM.
Regarding `COc1ccc2[nH]c([S+]([O-])Cc3nccc(OCCOCc4ccccc4)c3C)nc2c1` (stereo not drawn) [Compound 2], at H^+ -K^+ ATPase, the IC50 is 1.4 µM.
The compound `COc1ccc2[nH]c([S+]([O-])Cc3nccc(OCCO)c3C)nc2c1` (stereo not drawn) [Compound 17] displayed a 50% inhibitory concentration (IC50) against H^+ -K^+ ATPase of 3.5 µM.
The same measure, in the same setting: the value for `COc1ccc2[nH]c([S+]([O-])Cc3nccc(OCCN4CCCC4=O)c3C)nc2c1` (stereo not drawn) [Compound 9] was 13 µM; that for `Cc1c(OCCOCc2ccccc2)ccnc1C[S+]([O-])c1nc2ccccc2[nH]1` (stereo not drawn) [Compound 1] was 0.92 µM.
For `Cc1c(OCCCO)ccnc1C[S+]([O-])c1nc2ccccc2[nH]1` (stereo not drawn) [Compound 22], inhibition at H^+ -K^+ ATPase was half-maximal at 1.9 µM (IC50).
The compound `COc1ccc2[nH]c([S+]([O-])Cc3nccc(OCCOCCOCc4ccccc4)c3C)nc2c1` (stereo not drawn) [Compound 11] displayed an IC50 against H^+ -K^+ ATPase of 4.2 µM. This IC50 lies about 2.2-fold higher than the previous one.
On the same count and under the same terms, the value for `CSCCOc1ccnc(C[S+]([O-])c2nc3ccccc3[nH]2)c1C` (stereo not drawn) [Compound 20] was 2.3 µM; that for `Cc1c(OCCOCCOCc2ccccc2)ccnc1C[S+]([O-])c1nc2cc(C(F)(F)F)ccc2[nH]1` (stereo not drawn) [Compound 13] was 0.63 µM; that for `Cc1c(OCCN2CCCC2=O)ccnc1C[S+]([O-])c1nc2cc(C(F)(F)F)ccc2[nH]1` (stereo not drawn) [Compound 16] was 1.7 µM.
In the case of `Cc1c(OCCN2C(=O)CCC2=O)ccnc1C[S+]([O-])c1nc2cc(C(F)(F)F)ccc2[nH]1` (stereo not drawn) [Compound 15], on H^+ -K^+ ATPase, the IC50 amounted to 0.072 µM. This IC50 lies about 24-fold lower than the previous one.
Still for that read-out and setting: the value for `Cc1c(OCCOCc2ccccc2)ccnc1C[S+]([O-])c1nc2cc(C(F)(F)F)ccc2[nH]1` (stereo not drawn) [Compound 3] was 1 µM; that for `Cc1c(OCCN2CCCC2=O)ccnc1C[S+]([O-])c1nc2ccccc2[nH]1` (stereo not drawn) [Compound 5] was 2.4 µM; that for `COCCOCCOc1ccnc(C[S+]([O-])c2nc3ccccc3[nH]2)c1C` (stereo not drawn) [Compound 18] was 3.3 µM.
On the same count and under the same terms, the value for `Cc1c(OCCO)ccnc1C[S+]([O-])c1nc2ccccc2[nH]1` (stereo not drawn) [Compound 10] was 1.9 µM; that for `Cc1c(OCCN2C(=O)CCC2=O)ccnc1C[S+]([O-])c1nc2ccccc2[nH]1` (stereo not drawn) [Compound 4] was 11 µM; that for `Cc1c(OCCOCCOCc2ccccc2)ccnc1C[S+]([O-])c1nc2ccccc2[nH]1` (stereo not drawn) [Compound 12] was 2.6 µM.
Same read-out and setting: the value for `COCCOCCOc1ccnc(C[S+]([O-])c2nc3cc(OC)ccc3[nH]2)c1C` (stereo not drawn) [Compound 7] was 1.7 µM.

By IC50 is commonly meant the concentration that inhibits the measured activity by half. The low end stands for higher potency, the high end for lower potency.
